From ChEMBL document CHEMBL3232742, “Design, synthesis and evaluation of a cellular stable and detectable biotinylated fumagillin probe and investigation of cell permeability of fumagillin and its analogs to endothelial and cancer cells” (Eur J Med Chem, 2013)
Activity calls are given as the source filed them. No cut-off for these calls is given here.

Legend:
HepG2 [1] = experiment: Antiproliferative against human HepG2 cells assessed as cell viability up to 1000 nM after 96 hrs by MTT assay; assay type: functional
MCF7 = experiment: Antiproliferative against human MCF7 cells assessed as cell viability up to 1000 nM after 96 hrs by MTT assay; assay type: functional
A549 = experiment: Antiproliferative against human A549 cells assessed as cell viability up to 1000 nM after 96 hrs by MTT assay; assay type: functional
HUVEC [2] = experiment: Antiproliferative against HUVEC cells assessed as cell viability after 96 hrs by MTT assay; assay type: functional, cell-based; conditions: Homo sapiens
[3] = Antiproliferative against human Bel7402 cells assessed as cell viability up to 1000 nM after 96 hrs by MTT assay; assay type: functional, Bel-7402
[4] = biological target: Methionine aminopeptidase 2 (Homo sapiens) (UniProt P50579); experiment: Binding affinity to MetAP2 in HUVEC at 0.1 uM by Western blotting analysis
[5] = biological target: Methionine aminopeptidase 2 (Homo sapiens) (UniProt P50579); experiment: Binding affinity to MetAP2 in compound pre-treated HUVEC at 0.1 uM after 48 hrs by Western blotting analysis
[6] = biological target: Methionine aminopeptidase 2 (Homo sapiens) (UniProt P50579); experiment: Binding affinity to MetAP2 in fumagillin-pretreated HUVEC at 0.1 uM by Western blotting analysis
HepG2 [7] = experiment: Antiproliferative against human HepG2 cells assessed as cell viability after 96 hrs by MTT assay; assay type: functional, cell-based; conditions: HepG2, 96 h
[8] = Antiproliferative against human Bel7402 cells assessed as cell viability after 96 hrs by MTT assay; assay type: functional, cell-based; conditions: Bel-7402, 96 h
HepG2 [9] = experiment: Stability in human HepG2 assessed as compound bound MetAP2 level at 0.1 uM by Western blotting analysis; assay type: ADME, cell-based; conditions: hepg2, 0.1 µM
HUVEC [10] = experiment: Stability in HUVEC assessed as compound bound MetAP2 level at 0.1 uM by Western blotting analysis; assay type: ADME, cell-based; conditions: human

Methionine aminopeptidase 2 (Homo sapiens), sequence (P50579 2-478 limits assumed): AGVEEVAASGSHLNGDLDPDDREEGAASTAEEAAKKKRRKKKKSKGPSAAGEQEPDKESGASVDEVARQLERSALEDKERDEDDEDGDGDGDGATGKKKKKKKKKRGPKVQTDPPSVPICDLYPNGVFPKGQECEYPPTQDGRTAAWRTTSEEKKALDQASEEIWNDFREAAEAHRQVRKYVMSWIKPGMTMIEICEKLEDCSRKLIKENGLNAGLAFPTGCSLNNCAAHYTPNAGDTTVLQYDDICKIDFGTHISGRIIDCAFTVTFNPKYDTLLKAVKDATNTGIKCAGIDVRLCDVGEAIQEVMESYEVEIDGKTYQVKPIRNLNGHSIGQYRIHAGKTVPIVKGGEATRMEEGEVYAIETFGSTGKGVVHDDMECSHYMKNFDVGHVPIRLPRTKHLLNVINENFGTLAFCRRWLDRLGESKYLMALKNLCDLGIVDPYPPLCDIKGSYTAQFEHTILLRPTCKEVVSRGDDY

IC50 (HepG2 [7])	Stability (HepG2 [9])	Stability (HUVEC [10])	Compound	inhibition (INH) (HepG2 [1])	inhibition (INH) (MCF7)	inhibition (INH) (A549)	IC50 (HUVEC [2])	inhibition (INH) [3]	Activity [4]	Activity [5]	Activity [6]	IC50 [8]
–	–	–	CO[C@@H]1[C@H](OC(=O)/C=C/C=C/C=C/C=C/C(=O)O)CC[C@]2(CO2)[C@H]1[C@@]1(C)O[C@@H]1CC=C(C)C [FUMAGILLIN]	<50%	<50%	<50%	6.6 nM	<50%	–	–	–	–
–	–	–	CO[C@@H]1[C@H](OC(=O)NCCCCCCCCNC(=O)CCCC[C@@H]2SC[C@@H]3NC(=O)N[C@@H]32)CC[C@]2(CO2)[C@H]1[C@@]1(C)O[C@@H]1CC=C(C)C	<50%	<50%	<50%	9.8 nM	<50%	Active	inactive	inactive	–
20.2 nM	–	–	COc1cccc2c1C(=O)c1c(O)c3c(c(O)c1C2=O)C[C@@](O)(C(=O)CO)C[C@@H]3O[C@H]1C[C@H](N)[C@H](O)[C@H](C)O1 [DOXORUBICIN]	–	–	–	–	–	–	–	–	578 nM
–	Stable	Stable	CO[C@@H]1[C@H](OC(=O)NCCNC(=O)OCCOCCOCCOCCOCCOCCOC(=O)NCCCC[C@@H]2SC[C@@H]3NC(=O)N[C@@H]32)CC[C@]2(CO2)[C@H]1[C@@]1(C)O[C@@H]1CC=C(C)C	<50%	<50%	<50%	60 nM	<50%	–	–	–	–
